Source: patent publication US12077503B2, “Substituted cyclic amides and their use as herbicides” (FMC CORPORATION, priority 2015, dated 2024)

What was measured:
Type in all cases: in vivo
[1] = test system: redroot pigweed (Amaranthus retroflexus); test: Test G Post-Emergence Protocol; settings: Amaranthus retroflexus, post-emergence, 312 h; for pest or weed control at 15.625 g/ha: 15.625 g ai/ha, evaluated after 13 days (100=total damage to plant; 0=no damage to plant), read-out: Pigweed, Redroot damage rating; for pest or weed control at 62.5 g/ha: 62.5 g ai/ha, read-out: Pigweed, Redroot damage rating (100=total damage to plant; 0=no damage to plant); for pest or weed control at 62.5 g/ha / pest or weed control at 250 g/ha: evaluated after 13 days; for pest or weed control at 250 g/ha: 250 g ai/ha, read-out: damage to plant, Pigweed, Redroot (100=total damage to plant; 0=no damage to plant)
Method in brief: (§1)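 Pot-grown seedlings, 8 days old, raised in a glasshouse at 24/16 °C day/night with 14 h light and 65% humidity, were sprayed post-emergence with test compound in acetone/water (50:50) plus 0.5% Tween 20 at 15.625, 62.5 or 250 g/ha. Damage was scored visually 13 days later on a 0–100 scale (100 = total damage).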

[2] = test system: velvetleaf (Abutilon theophrasti); test: Test G Post-Emergence Protocol; settings: Abutilon theophrasti, post-emergence, 312 h; for pest or weed control at 15.625 g/ha: 15.625 g ai/ha, evaluated after 13 days (100=total damage to plant; 0=no damage to plant), read-out: Velvetleaf damage rating; for pest or weed control at 62.5 g/ha: 62.5 g ai/ha, read-out: Velvetleaf damage rating (100=total damage to plant; 0=no damage to plant); for pest or weed control at 62.5 g/ha / pest or weed control at 250 g/ha: evaluated after 13 days; for pest or weed control at 250 g/ha: 250 g ai/ha, read-out: damage to plant, Velvetleaf (100=total damage to plant; 0=no damage to plant)
Method in brief: as §1

[3] = test system: barnyardgrass (Echinochloa crus-galli); test: Test G Post-Emergence Protocol; settings: Echinochloa crus-galli, post-emergence, 312 h; for pest or weed control at 15.625 g/ha: 15.625 g ai/ha, evaluated after 13 days (100=total damage to plant; 0=no damage to plant), read-out: Barnyardgrass damage rating; for pest or weed control at 62.5 g/ha: 62.5 g ai/ha, read-out: Barnyardgrass damage rating (100=total damage to plant; 0=no damage to plant); for pest or weed control at 62.5 g/ha / pest or weed control at 250 g/ha: evaluated after 13 days; for pest or weed control at 250 g/ha: 250 g ai/ha, read-out: damage to plant, Barnyardgrass (100=total damage to plant; 0=no damage to plant)
Method in brief: as §1

[4] = test system: ivy-leaved morning glory (Ipomoea hederacea); test: Test G Post-Emergence Protocol; settings: Ipomoea, post-emergence, 312 h; for pest or weed control at 15.625 g/ha: 15.625 g ai/ha, evaluated after 13 days (100=total damage to plant; 0=no damage to plant), read-out: Morningglory, Ivy-leaved damage rating; for pest or weed control at 62.5 g/ha: 62.5 g ai/ha, read-out: Morningglory, Ivy-leaved damage rating (100=total damage to plant; 0=no damage to plant); for pest or weed control at 62.5 g/ha / pest or weed control at 250 g/ha: evaluated after 13 days; for pest or weed control at 250 g/ha: 250 g ai/ha, read-out: damage to plant, Morningglory, Ivy-leaved (100=total damage to plant; 0=no damage to plant)
Method in brief: as §1

[5] = test system: corn (Zea mays); test: Test G Post-Emergence Protocol; settings: Zea mays, post-emergence, 312 h; for plant injury at 15.625 g/ha: 15.625 g ai/ha, evaluated after 13 days (100=total damage to plant; 0=no damage to plant), read-out: Corn damage rating; for plant injury at 62.5 g/ha: 62.5 g ai/ha, read-out: Corn damage rating (100=total damage to plant; 0=no damage to plant); for plant injury at 62.5 g/ha / plant injury at 250 g/ha: evaluated after 13 days; for plant injury at 250 g/ha: 250 g ai/ha, read-out: damage to plant, Corn (100=total damage to plant; 0=no damage to plant)
Method in brief: as §1

[6] = test system: giant foxtail (Setaria faberi); test: Test G Post-Emergence Protocol; settings: Setaria faberi, post-emergence, 312 h; for pest or weed control at 15.625 g/ha: 15.625 g ai/ha, evaluated after 13 days (100=total damage to plant; 0=no damage to plant), read-out: Foxtail, Giant damage rating; for pest or weed control at 62.5 g/ha: 62.5 g ai/ha, read-out: Foxtail, Giant damage rating (100=total damage to plant; 0=no damage to plant); for pest or weed control at 62.5 g/ha / pest or weed control at 250 g/ha: evaluated after 13 days; for pest or weed control at 250 g/ha: 250 g ai/ha, read-out: damage to plant, Foxtail, Giant (100=total damage to plant; 0=no damage to plant)
Method in brief: as §1

[7] = test system: redroot pigweed (Amaranthus retroflexus); test: Test G Pre-Emergence Protocol; settings: Amaranthus retroflexus, pre-emergence, 312 h, evaluated after 13 days; for pest or weed control at 15.625 g/ha: 15.625 g ai/ha; for pest or weed control at 15.625 g/ha / pest or weed control at 250 g/ha: read-out: Pigweed, Redroot damage rating (100=total damage to plant; 0=no damage to plant); for pest or weed control at 62.5 g/ha: 62.5 g ai/ha, 100=total damage to plant, 0=no damage to plant, read-out: plant damage rating, Pigweed, Redroot; for pest or weed control at 250 g/ha: 250 g ai/ha
Method in brief: (§2)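 Glasshouse pre-emergence test: soil-sown seeds, sprayed after 1 d at 15.625, 62.5 or 250 g/ha. Conditions 24/16° C day/night, 14 h light, 65% humidity, watering twice daily. Rating 13 d post-spray (100 = total damage).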

[8] = test system: velvetleaf (Abutilon theophrasti); test: Test G Pre-Emergence Protocol; settings: Abutilon theophrasti, pre-emergence, 312 h, evaluated after 13 days; for pest or weed control at 15.625 g/ha: 15.625 g ai/ha; for pest or weed control at 15.625 g/ha / pest or weed control at 250 g/ha: read-out: Velvetleaf damage rating (100=total damage to plant; 0=no damage to plant); for pest or weed control at 62.5 g/ha: 62.5 g ai/ha, 100=total damage to plant, 0=no damage to plant, read-out: plant damage rating, Velvetleaf; for pest or weed control at 250 g/ha: 250 g ai/ha
Method in brief: as §2

[9] = test system: barnyardgrass (Echinochloa crus-galli); test: Test G Pre-Emergence Protocol; settings: Echinochloa crus-galli, pre-emergence, 312 h, evaluated after 13 days; for pest or weed control at 15.625 g/ha: 15.625 g ai/ha, read-out: Barnyard grass damage rating (100=total damage to plant; 0=no damage to plant); for pest or weed control at 62.5 g/ha: 62.5 g ai/ha, 100=total damage to plant, 0=no damage to plant, read-out: plant damage rating, Barnyardgrass; for pest or weed control at 250 g/ha: 250 g ai/ha, read-out: Barnyardgrass damage rating (100=total damage to plant; 0=no damage to plant)
Method in brief: as §2

[10] = test system: ivy-leaved morning glory (Ipomoea hederacea); test: Test G Pre-Emergence Protocol; settings: Ipomoea, pre-emergence, 312 h, evaluated after 13 days; for pest or weed control at 15.625 g/ha: 15.625 g ai/ha, read-out: Morning-glory, Ivy-leaved damage rating (100=total damage to plant; 0=no damage to plant); for pest or weed control at 62.5 g/ha: 62.5 g ai/ha, 100=total damage to plant, 0=no damage to plant, read-out: plant damage rating, Morningglory, Ivy-leaved; for pest or weed control at 250 g/ha: 250 g ai/ha, read-out: Morningglory, Ivy-leaved damage rating (100=total damage to plant; 0=no damage to plant)
Method in brief: as §2

[11] = test system: corn (Zea mays); test: Test G Pre-Emergence Protocol; settings: Zea mays, pre-emergence, 312 h, evaluated after 13 days; for plant injury at 15.625 g/ha: 15.625 g ai/ha; for plant injury at 15.625 g/ha / plant injury at 250 g/ha: read-out: Corn damage rating (100=total damage to plant; 0=no damage to plant); for plant injury at 62.5 g/ha: 62.5 g ai/ha, 100=total damage to plant, 0=no damage to plant, read-out: plant damage rating, Corn; for plant injury at 250 g/ha: 250 g ai/ha
Method in brief: as §2

[12] = test system: giant foxtail (Setaria faberi); test: Test G Pre-Emergence Protocol; settings: Setaria faberi, pre-emergence, 312 h, evaluated after 13 days; for pest or weed control at 15.625 g/ha: 15.625 g ai/ha; for pest or weed control at 15.625 g/ha / pest or weed control at 250 g/ha: read-out: Foxtail, Giant damage rating (100=total damage to plant; 0=no damage to plant); for pest or weed control at 62.5 g/ha: 62.5 g ai/ha, 100=total damage to plant, 0=no damage to plant, read-out: plant damage rating, Foxtail, Giant; for pest or weed control at 250 g/ha: 250 g ai/ha
Method in brief: as §2

Structure (SMILES)	pest or weed control at 15.625 g/ha [1]	pest or weed control at 62.5 g/ha [1]	pest or weed control at 250 g/ha [1]	pest or weed control at 15.625 g/ha [2]	pest or weed control at 62.5 g/ha [2]	pest or weed control at 250 g/ha [2]	pest or weed control at 15.625 g/ha [3]	pest or weed control at 62.5 g/ha [3]	pest or weed control at 250 g/ha [3]	pest or weed control at 15.625 g/ha [4]	pest or weed control at 62.5 g/ha [4]	pest or weed control at 250 g/ha [4]	plant injury at 15.625 g/ha [5]	plant injury at 62.5 g/ha [5]	plant injury at 250 g/ha [5]	pest or weed control at 15.625 g/ha [6]	pest or weed control at 62.5 g/ha [6]	pest or weed control at 250 g/ha [6]	pest or weed control at 15.625 g/ha [7]	pest or weed control at 62.5 g/ha [7]	further results
CN1C[C@@H](c2ccc(C(F)(F)F)cc2)[C@H](C(=O)Nc2cccc(Cl)n2)C1=O (racemic) [Compound 1606]	40%	40%	100%	0%	0%	60%	20%	40%	50%	0%	0%	30%	0%	0%	0%	40%	70%	80%	0%	0%	pest or weed control at 250 g/ha [7]: 0%; pest or weed control at 15.625 g/ha [8]: 0%; pest or weed control at 62.5 g/ha [8]: 0%; pest or weed control at 250 g/ha [8]: 0%; pest or weed control at 15.625 g/ha [9]: 0%; pest or weed control at 62.5 g/ha [9]: 20%; pest or weed control at 250 g/ha [9]: 60%; pest or weed control at 15.625 g/ha [10]: 0%; pest or weed control at 62.5 g/ha [10]: 0%; pest or weed control at 250 g/ha [10]: 10%; plant injury at 15.625 g/ha [11]: 0%; plant injury at 62.5 g/ha [11]: 0%; plant injury at 250 g/ha [11]: 10%; pest or weed control at 15.625 g/ha [12]: 0%; pest or weed control at 62.5 g/ha [12]: 60%; pest or weed control at 250 g/ha [12]: 90%
CN1C[C@@H](c2ccc(C(F)(F)F)cc2)[C@H](C(=O)Nc2cccc(F)c2C(F)(F)F)C1=O (racemic) [Compound 1609]	30%	70%	70%	0%	20%	50%	20%	70%	70%	20%	20%	70%	10%	10%	60%	70%	80%	80%	20%	40%	pest or weed control at 250 g/ha [7]: 70%; pest or weed control at 15.625 g/ha [8]: 10%; pest or weed control at 62.5 g/ha [8]: 10%; pest or weed control at 250 g/ha [8]: 30%; pest or weed control at 15.625 g/ha [9]: 20%; pest or weed control at 62.5 g/ha [9]: 50%; pest or weed control at 250 g/ha [9]: 80%; pest or weed control at 15.625 g/ha [10]: 10%; pest or weed control at 62.5 g/ha [10]: 20%; pest or weed control at 250 g/ha [10]: 70%; plant injury at 15.625 g/ha [11]: 0%; plant injury at 62.5 g/ha [11]: 10%; plant injury at 250 g/ha [11]: 40%; pest or weed control at 15.625 g/ha [12]: 70%; pest or weed control at 62.5 g/ha [12]: 80%; pest or weed control at 250 g/ha [12]: 80%
CN1C[C@@H](c2ccc(C(F)(F)F)cc2)[C@H](C(=O)Nc2nn[nH]n2)C1=O (racemic) [Compound 1612]	0%	0%	0%	0%	0%	0%	0%	0%	0%	0%	0%	0%	0%	0%	0%	0%	0%	0%	0%	0%	pest or weed control at 250 g/ha [7]: 0%; pest or weed control at 15.625 g/ha [8]: 0%; pest or weed control at 62.5 g/ha [8]: 0%; pest or weed control at 250 g/ha [8]: 0%; pest or weed control at 15.625 g/ha [9]: 0%; pest or weed control at 62.5 g/ha [9]: 0%; pest or weed control at 250 g/ha [9]: 0%; pest or weed control at 15.625 g/ha [10]: 0%; pest or weed control at 62.5 g/ha [10]: 0%; pest or weed control at 250 g/ha [10]: 0%; plant injury at 15.625 g/ha [11]: 0%; plant injury at 62.5 g/ha [11]: 0%; plant injury at 250 g/ha [11]: 0%; pest or weed control at 15.625 g/ha [12]: 0%; pest or weed control at 62.5 g/ha [12]: 0%; pest or weed control at 250 g/ha [12]: 0%
